A word on the IC50: it is the concentration at which inhibition is half-maximal. As a reminder, the MRT is the average time that molecules of a dose stay in the body.

One series concerns HuH-7 cells. Nature of the series: Inhibition of HuH-7 cell proliferation (CellTiter-Glo). It is filed as cell-based. The note with it: Homo sapiens, 72 hours. The method, then:
4. Experiment on the Inhibition of HuH-7 Cell Proliferation
In this experiment, the inhibitory effect of the compounds on HuH-7 cell proliferation was tested by a CellTiter-Glo method, and the half maximal inhibitory concentration (IC50) of the compounds on the activity of cell proliferation was determined.
1) A 96-well cell culture plate was seeded with 50˜100 μL of HuH-7 cell suspension at a density of 1-5×10^4 cells/ml. The culture plate was incubated in an incubator for 16˜24 hours (37° C., 5% CO2).
(§1) 2) Different concentrations of the test compound in a gradient dilution were added to the cells in the culture plate. The culture plate was incubated in an incubator for 72 hours (37° C., 5% CO2).
(§2) 3) 50˜100 μL of CellTiter-Glo reagent were added to each well. Then, the culture plate was shaken or left to stand for 5˜30 minutes at room temperature.
(§3) 4) The chemiluminescence signal values of each plate were determined by a microplate reader.
(§4) 5) The inhibition rates were calculated according to the chemiluminescence signal values.
6) The IC50 of the compound was obtained by curve fitting according to the inhibition rates at different concentrations, and the cell activity of the specific Example compounds is shown in Table 2.
(In ATP-based viability assays light output follows the ATP content of the culture.)

The subject of a further series is SK-HEP-1 cells. In words: Inhibition of SK-HEP-1 cell proliferation (CellTiter-Glo). The conditions noted are these: Homo sapiens, SK-HEP1, 72 hours. It is filed as cell-based. Here is the method:
5. Experiment on the Inhibition of SK-HEP-1 Cell Proliferation
In this experiment, the inhibitory effect of the compounds on SK-HEP-1 cell proliferation was tested by a CellTiter-Glo method, and the half maximal inhibitory concentration (IC50) of the compounds on the activity of cell proliferation was determined.
1) A 96-well cell culture plate was seeded with 50˜100 μL of SK-HEP-1 cell suspension at a density of 1-5×10^4 cells/ml. The culture plate was incubated in an incubator for 16˜24 hours (37° C., 5% CO2).
as §1, §2, §3, §4
The IC50 of the compound was obtained by curve fitting according to the inhibition rates at different concentrations, and the cell activity of the specific Example compounds is shown in Table 2.

For another series, the system named is Hep 3B cells. Nature of the series: Inhibition of Hep 3B cell proliferation (CellTiter-Glo). It is filed as cell-based. The conditions noted are these: Homo sapiens, Hep3B, 72 hours. Here is the method:
3. Experiment on the Inhibition of Hep 3B Cell Proliferation
In this experiment, the inhibitory effect of the compounds on Hep 3B cell proliferation was tested by a CellTiter-Glo method, and the half maximal inhibitory concentration (IC50) of the compounds on the activity of cell proliferation was determined.
1) A 96-well cell culture plate was seeded with 50˜100 μL of Hep 3B cell suspension at a density of 1-5×10^4 cells/ml. The culture plate was incubated in an incubator for 16-24 hours (37° C., 5% CO2).
as §1
3) 50-100 μL of CellTiter-Glo reagent were added to each well. Then, the culture plate was shaken or left to stand for 5˜30 minutes at room temperature.
as §3, §4
6) The IC50 of the compound was obtained by curve fitting according to the inhibition rates at different concentrations, and the cell activity of the specific example compounds is shown in Table 2.

Series [1] in a line: Pharmacokinetic (PK) analysis in rats. The note with it: SD rats, single intragastric administration, 5 mg/kg, plasma; for AUC(0-t) / AUC(0-inf) / half-life / MRT / Cmax: Sprague-Dawley, rat, po; for AUC(0-t): read-out: Area Under Curve AUC0-t; for AUC(0-inf): read-out: Area Under Curve AUC0-∞; for half-life: read-out: Half-Time t1/2 (converted); for MRT: read-out: Mean Residence Time MRT; for Cmax: read-out: Plasma Concentration Cmax. It is filed as in vivo, Sprague Dawley (SD) rats. The method, then: 6. Pharmacokinetic (PK) Analysis in Rats
Mode of administration: a single intragastric administration.
Formulation: 0.5% CMC and 1% Tween 80, ultrasonic dissolution.
Sampling points: 0.5, 1, 2, 4, 6, 8 and 24 hours after administration.
1. 1.0 ml of intravenous blood was collected and placed in a K2EDTA test tube.
The blood was centrifuged at room temperature at the speed of 1000˜3000×g for 5˜20 minutes to isolate the plasma, which was then stored at −80° C. 2. 160 μL of acetonitrile were added to 40 μL of plasma sample for precipitation, and then the mixture was centrifuged at the speed of 500˜2000×g for 5˜20 minutes. 3. 100 μL of treated solution were taken, and the concentration of the test compound was analyzed by LC/MS/MS. The LC/MS/MS analytical instrument was AB Sciex API 4000.
Liquid Chromatography Analysis:
Condition of Liquid chromatography: Shimadzu LC-20AD pump
Chromatographic column: phenomenex Gemiu 5 um C18 50×4.6 mm
Mobile phase: Solution A is 0.1% aqueous formic acid solution, and solution B is acetonitrile
Elution time: 0-3.5 minutes, the eluent was as follows:
Mass spectrometry analysis:
Mass spectrometer setup conditions: positive ion electrospray ionization (ESI) mode.

The target in another series is FGFR1 kinase (Homo sapiens (Human), UniProt P11362). Nature of the series: Enzymologic experiment of FGFR1 (TR-FRET). The series is classed as biochemical. The conditions noted are these: TR-FRET kinase activity. Here is the method: 2. Enzymologic Experiment of FGFR1
In this experiment, the inhibitory effect of the compounds on FGFR1 kinase activity was tested by a fluorescence resonance energy transfer (TR-FRET) method, and the half maximal inhibitory concentration (IC50) of the compounds on the FGFR1 kinase activity was determined.
1) 1˜5 μL of FGFR1 enzymatic solution was added to a 384-well plate, and the final concentration of the enzyme was 0.1˜5 nM.
2) 1˜5 μL of diluted solution in gradient of the compound was added.
3) 1˜5 μL of a substrate mixture containing substrate polypeptide with a final concentration of 5˜50 nM and ATP with a final concentration of 10˜200 μM was added.
4) The mixture was incubated for 0.5-3 hours at room temperature.
5) 10 μL of EDTA and a test solution comprising labeled antibody were added, and the plate was incubated for 1 hour at room temperature.
6) The fluorescence signal values of each plate were determined by a microplate reader at 665 nm.
7) The inhibition rates were calculated according to the fluorescence signal values.
The IC50 of the compound was obtained by curve fitting according to the inhibition rates at different concentrations, and the enzymatic activity of the specific example compounds is shown in Table 1.
A general note: Time-resolved FRET reads energy transfer from a long-lived donor to a nearby acceptor.

Where only a bound is given, the exact number is not on record here.

FGFR1 kinase, sequence (P11362 22-822): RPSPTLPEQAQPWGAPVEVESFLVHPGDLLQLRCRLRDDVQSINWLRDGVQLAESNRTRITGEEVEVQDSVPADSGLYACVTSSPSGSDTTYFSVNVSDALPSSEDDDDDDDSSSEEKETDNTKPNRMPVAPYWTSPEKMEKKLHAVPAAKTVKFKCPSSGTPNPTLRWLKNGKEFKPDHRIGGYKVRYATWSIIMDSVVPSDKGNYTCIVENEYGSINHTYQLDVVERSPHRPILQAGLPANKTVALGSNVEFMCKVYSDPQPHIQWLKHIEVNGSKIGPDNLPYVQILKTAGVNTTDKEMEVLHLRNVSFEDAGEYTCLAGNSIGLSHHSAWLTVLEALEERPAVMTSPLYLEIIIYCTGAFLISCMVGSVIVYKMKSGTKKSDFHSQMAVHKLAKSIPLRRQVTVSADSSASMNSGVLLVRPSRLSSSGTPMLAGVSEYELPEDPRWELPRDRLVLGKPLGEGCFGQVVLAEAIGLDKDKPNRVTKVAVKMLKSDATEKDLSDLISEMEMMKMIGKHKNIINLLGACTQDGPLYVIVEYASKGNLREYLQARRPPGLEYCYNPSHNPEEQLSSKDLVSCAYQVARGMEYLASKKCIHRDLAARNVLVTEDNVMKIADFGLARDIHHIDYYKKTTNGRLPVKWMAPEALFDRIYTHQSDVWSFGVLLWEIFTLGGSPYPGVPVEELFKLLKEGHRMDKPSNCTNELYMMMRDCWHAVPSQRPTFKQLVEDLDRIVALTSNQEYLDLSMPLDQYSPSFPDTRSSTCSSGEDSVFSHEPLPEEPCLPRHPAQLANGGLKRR

In the series with HuH-7 cells, `COCCNc1cc(NC(=O)N2CCCc3cc(CN(C)C(=O)[C@H]4CCCO4)c(C=O)nc32)ncc1C#N` [Example 1, (R)—N-(5-Cyano-4-((2-methoxyethyl)amino)pyridin-2-yl)-7-formyl-6-((N-methyltetrahydrofuran-2-carboxamido)methyl)-3,4-dihydro-1,8-naphthyridin-1(2H)-carb oxamide] gave an IC50 of 11 nM. The compound further returned a 50% inhibitory concentration (IC50) with SK-HEP-1 cells of over 10000 nM. This compound also registered a half-maximal inhibitory concentration (IC50) in the series on Hep 3B cells of 7.3 nM. In series [1], the Peak Time tmax came out at 2 h, the AUC(0-t) was found to be 6800 ng·h/mL, the AUC(0-inf) was determined as 6930 ng·h/mL and the half-life is 1.1 h. In addition, in series [1], the MRT is 3.1 h and the Cmax worked out at 2070 ng/mL. The half-maximal inhibitory concentration (IC50) against FGFR1 kinase is over 10000 nM.
In the series with HuH-7 cells, `COCCNc1cc(NC(=O)N2CCCc3cc(CN(C)C(=O)[C@@H]4CCCO4)c(C=O)nc32)ncc1C#N` [Example 2, (S)—N-(5-Cyano-4-((2-methoxyethyl)amino)pyridin-2-yl)-7-formyl-6-((N-methyltetrahydrofuran-2-carboxamido)methyl)-3,4-dihydro-1,8-naphthyridin-1(2H)-carb oxamide] had a half-inhibitory concentration (IC50) of 5.9 nM. In the series with SK-HEP-1 cells, the IC50 was over 10000 nM. For the same compound, 5.3 nM corresponded to half-maximal inhibition in the series on Hep 3B cells (IC50). In series [1], the Peak Time tmax came out at 2 h, the AUC(0-t) was 5820 ng·h/mL, the AUC(0-inf) is 5900 ng·h/mL and the half-life is 1.2 h. Also, in series [1], the MRT was determined as 2.5 h and the Cmax was determined as 2200 ng/mL. For the same compound, the IC50 against FGFR1 kinase is over 10000 nM.
Turning to `COCCNc1cc(NC(=O)N2CCCc3cc(CN(C)C(=O)C4COC4)c(C=O)nc32)ncc1C#N` [Example 3, N-(5-Cyano-4-((2-methoxyethyl)amino)pyridin-2-yl)-7-formyl-6-((N-methyloxetane-3-carboxamido)methyl)-3,4-dihydro-1,8-naphthyridin-1(2H)-carboxamide], the midpoint of inhibition in the series on HuH-7 cells, the IC50, lay at 38.8 nM. Also, the half-maximal inhibitory concentration (IC50) in the series with SK-HEP-1 cells is over 10000 nM. The compound also registered an IC50 with Hep 3B cells of 5.4 nM. Also, in series [1], the Peak Time tmax amounted to 2 h, the AUC(0-t) amounted to 6350 ng·h/mL, the AUC(0-inf) was 6660 ng·h/mL and the half-life is 1.6 h. In addition, in series [1], the MRT is 3.3 h and the Cmax was found to be 2230 ng/mL. In addition, the IC50 against FGFR1 kinase is over 10000 nM.
Regarding `COCCNc1cc(NC(=O)N2CCCc3cc(CN(C)C(=O)C4CCOC4)c(C=O)nc32)ncc1C#N` (centres unmarked) [Example 5, N-(5-Cyano-4-((2-methoxyethyl)amino)pyridin-2-yl)-7-formyl-6-((N-methyltetrahydrofuran-3-carboxamido)methyl)-3,4-dihydro-1,8-naphthyridin-1(2H)-carboxamide], in the series on HuH-7 cells, the IC50 came out at 31.7 nM. In addition, in the series on SK-HEP-1 cells, the half-inhibitory concentration (IC50) is over 10000 nM. Moreover, half-maximal inhibition in the series with Hep 3B cells (IC50) was put at 9.1 nM. In addition, in series [1], the Peak Time tmax was found to be 2 h, the AUC(0-t) came out at 13000 ng·h/mL, the AUC(0-inf) was found to be 13400 ng·h/mL and the half-life was 1.2 h. In series [1], the MRT was found to be 3.2 h and the Cmax is 3570 ng/mL. This compound also came in with an IC50 at FGFR1 kinase of over 10000 nM.
As to `COCCNc1cc(NC(=O)N2CCCc3cc(CN4CC[C@H](OC)C4=O)c(C=O)nc32)ncc1C#N` [Example 46, (S)—N-(5-Cyano-4-((2-methoxyethyl)amino)pyridin-2-yl)-7-formyl-6-((3-methoxy-2-carbonylpyrrolidin-1-yl)methyl)-3,4-dihydro-1,8-naphthyridin-1(2H)-carboxamide], in the series with HuH-7 cells, inhibition was half-maximal at 9 nM (IC50). In the series with SK-HEP-1 cells, this compound had an IC50 of over 10000 nM. Besides, it took 2.3 nM to reach half-maximal inhibition in the series with Hep 3B cells (IC50). Further, in series [1], the Peak Time tmax stood at 2 h, the AUC(0-t) is 10700 ng·h/mL, the AUC(0-inf) is 11300 ng·h/mL and the half-life was 1 h. For the same compound, in series [1], the Cmax was found to be 3290 ng/mL. At FGFR1 kinase, this compound showed an IC50 of over 10000 nM.
`CO[C@@H]1CCN(c2cc(NC(=O)N3CCCc4cc(CN5CC[C@H](OC)C5=O)c(C=O)nc43)ncc2C#N)C1` [Example 54, N-(5-Cyano-4-((R)-3-methoxypyrrolidin-1-yl)pyridin-2-yl)-7-formyl-6-(((S)-3-methoxy-2-carbonylpyrrolidin-1-yl)methyl)-3,4-dihydro-1,8-naphthyridin-1(2H)-carboxamide]: it took 11.3 nM to reach half-maximal inhibition in the series on HuH-7 cells (IC50). The IC50 in the series with SK-HEP-1 cells is over 10000 nM. Also, the IC50 in the series on Hep 3B cells stood at 4.4 nM. Also, in series [1], the Peak Time tmax is 2 h, the AUC(0-t) is 7130 ng·h/mL, the AUC(0-inf) is 7870 ng·h/mL and the half-life was 1 h. In series [1], the MRT stood at 2.7 h and the Cmax stood at 2870 ng/mL. This compound also showed an IC50 at FGFR1 kinase of over 10000 nM.
As to `COCC(=O)N(C)Cc1cc2c(nc1C=O)N(C(=O)Nc1cc(N3CC[C@H](OC)C3)c(C#N)cn1)CCC2` [Example 106, (S)—N-(5-Cyano-4-(3-methoxypyrrolidin-1-yl)pyridin-2-yl)-7-formyl-6-((2-methoxy-N-methylacetamido)methyl)-3,4-dihydro-1,8-naphthyridin-1(2H)-carboxamide], the half-inhibitory concentration (IC50) was 21.1 nM with HuH-7 cells, over 10000 nM with SK-HEP-1 cells, 5.8 nM in the series with Hep 3B cells and over 10000 nM on FGFR1 kinase.
For `COCCNc1cc(NC(=O)N2CCCc3cc(CN(C[C@H]4CCCO4)C(C)=O)c(C=O)nc32)ncc1C#N` [Example 109, (R)—N-(5-Cyano-4-((2-methoxyethyl)amino)pyridin-2-yl)-7-formyl-6-((N-((tetrahydrofuran-2-yl)methyl)acetamido)methyl)-3,4-dihydro-1,8-naphthyridin-1(2H)-carboxamide], the half-inhibitory concentration (IC50) in the series on HuH-7 cells was 11.1 nM; in the series on SK-HEP-1 cells, over 10000 nM; in the series on Hep 3B cells, 6 nM; against FGFR1 kinase it was over 10000 nM.
Consider `COCCNc1cc(NC(=O)N2CCCc3cc(CN(C[C@@H]4CCCO4)C(C)=O)c(C=O)nc32)ncc1C#N` [Example 111, (S)—N-(5-Cyano-4-((2-methoxyethyl)amino)pyridin-2-yl)-7-formyl-6-((N-((tetrahydrofuran-2-yl)methyl)acetamido)methyl)-3,4-dihydro-1,8-naphthyridin-1(2H)-carboxamide], for which the IC50 in the series on HuH-7 cells is 21.5 nM; in the series with SK-HEP-1 cells, over 10000 nM; with Hep 3B cells, 8.3 nM; at FGFR1 kinase it was over 10000 nM.

The values above are taken from US11608332B2, “FGFR4 inhibitor and preparation method and use thereof” (Jiangsu Hansoh Pharmaceutical Group Co., Ltd., priority 2016, dated 2023).
